# According to patent US10828368B2, “Therapeutic treatments using centhaquin” (MIDWESTERN UNIVERSITY, priority 2009, dated 2020):
# Where two headings read alike, the source gives them in different places.
# Assays:
# [1] = tested on: urethane anaesthetized rats; assay: Cardiovascular response (MAP, PP, HR) of drugs in urethane anaesthetized rats; assay type: in vivo, rat; settings: for decrease in MAP / reduction in HR: compared to baseline; for dose-response effect on MAP, PP and HR: clonidine 10, 30, 90 μg/kg i.v., centhaquin 0.05, 0.15, 0.45 mg/kg i.v.
# Excerpt: Rats were anaesthetized with urethane (1.5 g/kg i.p.) and prepared for the determination of hemodynamic parameters (Gulati and Srimal, 1993; Gulati et al., 1997b). The anesthetized rats were shaved and immobilized to prepare for cannulation. A 2-3 cm incision was made above the femoral vein and artery, and the vessels were dissected and cleaned. The left femoral vein was cannulated (PE-50 tubing, Clay Adams, Parsipanny, N.J.) and secured for drug administration. An ultra-miniature Pressure transducer SPR-320 (2F Polyurethane), with a single pressure sensor side mounted at the tip (Millar Instruments, Houston, Tex.), was inserted in the left femoral artery to acquire the hemodynamic signals. Pressure transducer was connected to bridge amplifier (ML221 Bridge Amp; AD Instruments, Mountain View, Calif., USA) with Viking connector (AEC-10C) and the signals were continuously acquired at a sampling rate of 1000 S^−1 using Millar PowerLab 16/30 data acquisition system (AD Instruments, Mountain View, Calif., USA). MAP, HR, and PP were determined and analyzed with LabChart-5.00 software program (Millar Instruments). After the experiment was completed, the animals were euthanized with higher dose of urethane (3 gm/kg).
# The animals were allowed to stabilize for at least 20 min following surgical procedures.
# In the above studies, all drugs were injected through the left femoral vein and changes in MAP, HR, and PP after clonidine and centhaquin injection were recorded for 1 hour using Millar PowerLab 16/30 data acquisition system.
# rats [2] = settings: cited from earlier work
# norepinephrine release = settings: centhaquin 0.1, 1.0 and 10.0 μg/ml; cited from earlier work
# mice = settings: intraperitoneal; cited from earlier work
# rats [3] = assay: Tail-flick latency analgesia (FIGS. 9-13); assay type: in vivo, rat; settings: iv
# [4] = tested on: α-adrenergic receptors in the hypothalamus and medulla; settings: chronic administration in rats; with hypotension and bradycardia; cited from earlier work
# [5] = tested on: rats in the hemorrhagic shock model; assay: Hemorrhagic shock model, resuscitation with Ringer's lactate and centhaquin; assay type: in vivo, rat
# [6] = once a day for 15 days; cited from earlier work
# [7] = tested on: 5-HT1 receptors in the medulla; settings: cited from earlier work
# [8] = Arterial blood gas analysis before and one hour after drug; assay type: in vivo, rat; settings: for changes in arterial blood pH, pO2, pCO2, Na^+, K^+, lactate and hematocrit: before versus one hour after clonidine 90 μg/kg or centhaquin 0.45 mg/kg
# Excerpt: Arterial blood pH, pO2, pCO2, Na^+, K^+, and lactate were monitored prior to and after drug administration. Blood samples were drawn from the arterial cannula using blood gas sampling syringes (Innovative Medical Technologies, Inc. Leawood, Kans.) and analyzed using a GEM Premier 3000 unit (Instrument Laboratory, Lexington, Mass.).
# Blood samples were drawn from the arterial cannula using blood gas sampling syringes (Innovative Medical Technologies, Inc. Leawood, Kans.) and analyzed using a GEM Premier 3000 unit (Instrument Laboratory, Lexington, Mass.).
# [9] = one hour after clonidine 90 μg/kg or centhaquin 0.45 mg/kg
smiles,measurement,setting,value
Cc1cccc(N2CCN(CCc3ccc4ccccc4n3)CC2)c1 [Centhaquin],decrease in MAP,[1]; centhaquin 0.05 mg/kg i.v.,15.64%
same,reduction in HR,[1]; centhaquin 0.05 mg/kg i.v.,10.49%
same,decrease in MAP,[1]; centhaquin 0.15 mg/kg i.v.,25.15%
same,reduction in HR,[1]; centhaquin 0.15 mg/kg i.v.,12.57%
same,decrease in MAP,[1]; centhaquin 0.45 mg/kg i.v.,28.08%
same,reduction in HR,[1]; centhaquin 0.45 mg/kg i.v.,13.34%
same,"dose-response effect on MAP, PP and HR",[1],"dose-dependent fall in MAP, and a decrease in HR"
same,"dose-response effect on MAP, PP and HR",[1]; listed as centhaquin,dose-dependent hypotension and bradycardia
same,effect on MAP and HR,"rats [2]; centhaquin 0.05 to 0.2 mg/kg, iv, urethane anesthetized rats",dose-dependent decrease
same,effect on MAP or HR,"rats [2]; cervical sectioned rats, intravenously administered",did not produce any effect
same,effect on MAP or HR,rats [2]; intrathecal administration,did not produce any effect
same,norepinephrine release evoked by potassium chloride and dimethyl phenyl piperazinium chloride,norepinephrine release,inhibited
same,spontaneous release of norepinephrine,norepinephrine release,initial increase followed by decrease
same,LD50,mice,600 mg/kg
same,analgesic effect relative to 4 mg/kg dose of morphine,rats [3]; centhaquin 0.3 mg/kg,comparable
same,analgesic effect relative to 4 mg/kg dose of morphine,rats [3]; centhaquin 0.9 mg/kg,significantly greater
same,analgesia (tail-flick latency),"rats [3]; centhaquin 0.1, 0.3 and 0.9 mg/kg",dose-dependent analgesia
same,effect on morphine analgesia,rats [3]; centhaquin 0.3 and 0.9 mg/kg,potentiated
same,effect of chronic administration on α-adrenergic receptors in the hypothalamus and medulla,[4],up-regulation
same,pressure-volume loops,[5]; LR-100 and centhaquin 0.05 mg/kg compared with LR-100,improvement
same,"blood lactate, comparison of centhaquin doses",[5]; centhaquin 0.05-0.45 mg/kg,lower doses of centhaquin were more effective than the higher doses
same,blood lactate,[5]; centhaquin 0.05-0.45 mg/kg with Ringer's lactate,drop in lactate
same,survival time,[5]; centhaquin administered with LR-100,increase in survival time
same,potentiation or tolerance on repeated administration,[6],did not produce any potentiation or tolerance
same,effect of repeated administration on 5-HT1 receptors in the medulla,[7],up-regulation
same,"changes in arterial blood pH, pO2, pCO2, Na^+, K^+, lactate and hematocrit",[8],"did not affect arterial blood pH, pO2, and pCO2"
same,"changes in arterial blood pH, pO2, pCO2, Na^+, K^+, lactate and hematocrit",[8]; listed as centhaquin,no significant changes
same,Hct,[8]; [9],52 ± 1%
same,K^+,[8]; [9],4.0 ± 0.2 mmol/L
same,Na^+,[8]; [9],140 ± 1 mmol/L
same,arterial blood pH,[8]; [9],7.27 ± 0.02
same,pCO2,[8]; [9],53 ± 2 mmHg
same,pO2,[8]; [9],96 ± 9 mmHg
